Measurements published in the Kinase Knowledgebase extract (Sharma et al. 2016).

Molecular target: EGFR (human) (UniProt P00533)
Conditions: hl-60

Chain of EGFR (human) (P00533 whole entry, looked up): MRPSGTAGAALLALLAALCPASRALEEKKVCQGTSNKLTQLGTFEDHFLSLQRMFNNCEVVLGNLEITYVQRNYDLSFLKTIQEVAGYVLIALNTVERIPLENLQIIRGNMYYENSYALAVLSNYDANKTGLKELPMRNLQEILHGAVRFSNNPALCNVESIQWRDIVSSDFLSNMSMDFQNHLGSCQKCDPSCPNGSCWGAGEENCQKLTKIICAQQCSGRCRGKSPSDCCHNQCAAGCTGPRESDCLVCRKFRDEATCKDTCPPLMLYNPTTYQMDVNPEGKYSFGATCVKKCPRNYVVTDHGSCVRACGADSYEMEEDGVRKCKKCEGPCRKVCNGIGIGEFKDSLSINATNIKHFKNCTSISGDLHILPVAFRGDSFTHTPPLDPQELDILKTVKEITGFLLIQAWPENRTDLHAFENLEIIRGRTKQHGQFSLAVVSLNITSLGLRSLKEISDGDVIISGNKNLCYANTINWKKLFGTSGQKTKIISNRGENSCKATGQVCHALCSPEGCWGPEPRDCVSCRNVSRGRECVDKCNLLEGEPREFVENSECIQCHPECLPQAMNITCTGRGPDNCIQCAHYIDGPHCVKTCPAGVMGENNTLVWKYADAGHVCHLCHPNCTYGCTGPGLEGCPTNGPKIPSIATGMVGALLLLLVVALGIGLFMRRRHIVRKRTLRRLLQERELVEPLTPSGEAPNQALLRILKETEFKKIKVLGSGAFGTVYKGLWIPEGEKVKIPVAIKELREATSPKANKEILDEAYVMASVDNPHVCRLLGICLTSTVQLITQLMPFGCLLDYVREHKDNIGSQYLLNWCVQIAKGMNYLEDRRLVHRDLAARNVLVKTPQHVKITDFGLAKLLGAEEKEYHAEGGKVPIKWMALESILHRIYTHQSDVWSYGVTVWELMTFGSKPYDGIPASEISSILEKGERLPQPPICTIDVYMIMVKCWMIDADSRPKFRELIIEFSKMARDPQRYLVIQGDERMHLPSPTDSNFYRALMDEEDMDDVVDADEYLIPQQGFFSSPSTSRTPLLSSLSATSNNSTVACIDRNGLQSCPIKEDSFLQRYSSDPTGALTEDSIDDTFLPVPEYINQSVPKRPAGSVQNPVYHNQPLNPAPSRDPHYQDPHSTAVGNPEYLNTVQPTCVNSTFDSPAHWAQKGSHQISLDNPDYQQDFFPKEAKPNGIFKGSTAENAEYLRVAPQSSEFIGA

IC50, > 100 µM:
O=C(CCCCCC(=O)Nc1ccc(O)c(C(=O)Nc2ccc(Cl)c(Cl)c2)c1)NO
O=C(CCCCCC(=O)Nc1ccc(O)c(C(=O)Nc2ccc(F)c(Cl)c2)c1)NO
C#Cc1cccc(NC(=O)c2cc(NC(=O)CCCCCC(=O)NO)ccc2O)c1
O=C(CCCCCC(=O)Nc1ccc(O)c(C(=O)Nc2ccc(Cl)c(C(F)(F)F)c2)c1)NO
C#Cc1cccc(NC(=O)c2cccc(NC(=O)CCCCCC(=O)NO)c2)c1
C#Cc1cccc(NC(=O)c2cc(NC(=O)CCCCCCC(=O)NO)ccc2O)c1
O=C(CCCCCC(=O)Nc1ccc(O)c(C(=O)Nc2cccc(C(F)(F)F)c2)c1)NO
O=C(CCCCCC(=O)Nc1ccc(O)c(C(=O)Nc2ccc(F)c(F)c2)c1)NO
O=C(CCCCCC(=O)Nc1ccc(O)c(C(=O)Nc2ccc(OCc3cccc(F)c3)c(Cl)c2)c1)NO
O=C(CCCCCC(=O)Nc1ccc(O)c(C(=O)Nc2cccc(F)c2)c1)NO
